Values joined by “and” are separate entries in the source; they are usually repeats but may differ in a detail not shown here. Identical values can stand only once.
Columns and labels:
[1] = molecular target: T1, human adrenergic receptor α1A (Homo sapiens, UniProt P35348); assay: Intrinsic activity, aequorin luminescence functional assay at α1A-AR; assay type: cell-based; conditions: for α1A-AR Profile: agonist/antagonist profile; for IC50: cells expressing aequorin and human α1A, against phenylephrine, means of three independent experiments in duplicates; for Selectivity Ratio α1B/α1A: selectivity for α1A-AR (IC50(α1B-AR)/IC50(α1A-AR))
T1 sequence (P35348 1-466): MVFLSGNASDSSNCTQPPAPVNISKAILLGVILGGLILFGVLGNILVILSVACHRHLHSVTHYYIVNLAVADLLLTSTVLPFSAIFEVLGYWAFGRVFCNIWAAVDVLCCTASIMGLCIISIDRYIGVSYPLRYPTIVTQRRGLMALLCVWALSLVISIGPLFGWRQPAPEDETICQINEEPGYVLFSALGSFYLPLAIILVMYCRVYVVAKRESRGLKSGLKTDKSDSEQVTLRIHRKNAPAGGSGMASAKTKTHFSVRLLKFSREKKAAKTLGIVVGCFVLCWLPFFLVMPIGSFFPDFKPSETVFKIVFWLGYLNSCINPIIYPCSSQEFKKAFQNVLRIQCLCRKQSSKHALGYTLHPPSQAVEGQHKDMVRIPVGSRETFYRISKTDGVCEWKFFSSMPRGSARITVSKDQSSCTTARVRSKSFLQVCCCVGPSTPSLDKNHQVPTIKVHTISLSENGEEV
Description: (§1) The subtype selectivity for α1A and α1B was calculated as IC50(α1B-AR)/IC50(α1A-AR) and IC50(α1A-AR)/IC50(α1B-AR) ratio, respectively.
(§2) Intrinsic activity at the α1-AR subtypes studies were performed using the cells expressing mitochondrially-targeted aequorin and one of the human adrenergic receptor α1A or α1B (PerkinElmer, Boston, MA, USA), according to the manufacturer’s instructions. For measurement, frozen cells were thawed and re-suspended in 10 mL of assay buffer containing 5 μM “Coelenterazine h”. This cell suspension was put in a 10 mL Falcon tube, fixed onto a rotating heel, and incubated overnight at rt in the dark (8 rpm; 45° angle). Cells were diluted with Assay Buffer to 5000 cells/20 μL. […] The light emitted was recorded for 20 s. Cells with antagonists were incubated for 15 min at room temperature. […] Luminescence was measured using the multidetection microplate reader (POLARstar Omega, BMG LABTECH, Ortenberg, Germany).
(§3) All statistics were performed using GraphPad Prism, Version 6.0 (GraphPad Software, San Diego, CA, USA). In the radioligand binding study, data were analyzed by a one-site curve-fitting equation, and inhibition constants (Ki) values were calculated via the Cheng-Prusoff equation [63]. In functional studies, data were analyzed using a sigmoidal dose-response (variable slope) equation. Arterial blood pressure data were analyzed using a two-way ANOVA with Sidak’s post-hoc test for multiple comparisons. A p < 0.05 was considered statistically significant.

[2] = molecular target: T2, human adrenergic receptor α1B (Homo sapiens, UniProt P35368); assay: Intrinsic activity, aequorin luminescence functional assay at α1B-AR; assay type: cell-based; conditions: for α1B-AR Profile: agonist/antagonist profile; for IC50: cells expressing aequorin and human α1B, against phenylephrine, means of three independent experiments in duplicates; for Selectivity Ratio α1A/α1B: selectivity for α1B-AR (IC50(α1A-AR)/IC50(α1B-AR))
T2 sequence (P35368 1-520): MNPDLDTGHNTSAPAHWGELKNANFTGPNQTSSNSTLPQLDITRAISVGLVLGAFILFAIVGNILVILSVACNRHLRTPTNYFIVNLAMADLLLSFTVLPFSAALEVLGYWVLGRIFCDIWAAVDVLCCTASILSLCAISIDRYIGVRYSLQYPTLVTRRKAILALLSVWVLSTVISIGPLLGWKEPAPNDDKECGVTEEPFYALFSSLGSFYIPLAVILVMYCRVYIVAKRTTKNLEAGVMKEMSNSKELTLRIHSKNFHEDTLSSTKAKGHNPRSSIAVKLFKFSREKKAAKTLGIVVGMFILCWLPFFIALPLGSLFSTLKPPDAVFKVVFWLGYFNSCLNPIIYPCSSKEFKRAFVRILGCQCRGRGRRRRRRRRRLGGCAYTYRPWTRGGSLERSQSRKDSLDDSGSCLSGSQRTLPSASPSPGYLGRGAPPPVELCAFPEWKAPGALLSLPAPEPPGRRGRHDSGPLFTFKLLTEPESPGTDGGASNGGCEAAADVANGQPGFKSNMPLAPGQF
Description: as §1, §2, §3

[3] = system: arterial blood pressure of normotensive Wistar rats; assay: Influence on blood pressure in normotensive anesthetized rats after i.v. administration; assay type: in vivo, rat; conditions: for Diastolic blood pressure / Systolic blood pressure: 2.0 mg/kg i.v., mean, n = 6; for effect on systolic and diastolic blood pressure (in words): i.v., normotensive anesthetized rats
Description: In the next step, the hypotensive activity of novel compounds 1–3, 5–9, and 11–14 was determined after i.v. administration to normotensive anesthetized rats. All results are shown in Supplementary Table S1.
The normotensive rats were anesthetized with thiopental (75 mg/kg) by intraperitoneal injection (i.p.). The left carotid artery was cannulated with a polyethylene tub filled with heparin in saline to facilitate pressure measurements using a PowerLab Apparatus (ADInstruments, Sydney, Australia). Blood pressure was measured immediately before administration of the tested compounds or vehicle—time 0 min (initial blood pressure) and 60 min thereafter. Initial blood pressure before administration of the tested chemicals in all experimental groups was similar. The tested compounds were dissolved in a specific vehicle: ethyl alcohol 5% − kolliphor 5% − water 90%. All tested chemicals were administrated intravenously (i.v.) at a constant volume of 1 mL/kg after 20 min of stabilization period. The compounds were tested at a starting dose of 2 mg/kg. If the hypotensive activity was found, the dose was reduced by half. The dosing was continued until the hypotensive effects disappeared. Urapidil was used as a reference compound.
as §3

[4] = molecular target: α1-adrenoceptors (α1-ARs), rat cerebral cortex; assay: Radioligand binding assay with [3H]-prazosin, affinity for α1-ARs; conditions: three independent experiments in duplicates, read-out: α1-adrenoceptor affinity Ki
Description: In the first step, all synthesized compounds (1–15) were tested in vitro for their affinity for α1-ARs on rat cerebral cortex by the radioligand binding assay using [^3H]-prazosin as a specific radioligand.
The affinity for α1-ARs was determined by radioligand binding assay on rat cerebral cortex using [3H]-prazosin as a specific radioligand. The brains were homogenized in 20 volumes of an ice-cold 50 mM Tris-HCl buffer (pH 7.6) and were centrifuged (MPW Med. Instruments, Warsaw, Poland) at 20,000× g for 20 min (0–4 °C). The cell pellet was resuspended in the Tris-HCl buffer and centrifuged again. Radioligand-binding assay was performed in plates (MultiScreen/Millipore, Burlington, MA, USA). The final incubation mixture (final volume 300 μL) consisted of 240 μL of the membrane suspension, 30 μL of [3H]-Prazosin (0.2 nM) solution, and 30 μL of the buffer containing seven to eight concentrations (10^−11 to 10^−4 M) of the tested compounds. For measuring the unspecific binding, phentolamine, 10 μM (in the case of [3H]-Prazosin) was applied. The incubation was terminated by rapid filtration over glass fiber filters (Whatman GF/C, Sigma-Aldrich) using a vacuum manifold (Millipore). The filters were then washed twice with the assay buffer and placed in scintillation vials with a liquid-scintillation cocktail. Radioactivity was measured in a WALLAC 1409 DSA liquid-scintillation counter (BioSurplus, San Diego, CA, USA).
as §3

[5] = 0 min (initial, before administration)

| α1A-AR Profile [1] | IC50 [1] | Selectivity Ratio α1B/α1A [1] | α1B-AR Profile [2] | IC50 [2] | Selectivity Ratio α1A/α1B [2] | Compound | Diastolic blood pressure [3, 5] | Systolic blood pressure [3, 5] | Diastolic blood pressure ([3]; 5 min) | Systolic blood pressure ([3]; 5 min) | Diastolic blood pressure ([3]; 10 min) | Systolic blood pressure ([3]; 10 min) | Diastolic blood pressure ([3]; 20 min) | Systolic blood pressure ([3]; 20 min) | Diastolic blood pressure ([3]; 30 min) | Systolic blood pressure ([3]; 30 min) | Diastolic blood pressure ([3]; 40 min) | Systolic blood pressure ([3]; 40 min) | Diastolic blood pressure ([3]; 50 min) | Systolic blood pressure ([3]; 50 min) | other results |
| --- | --- | --- | --- | --- | --- | --- | --- | --- | --- | --- | --- | --- | --- | --- | --- | --- | --- | --- | --- | --- | --- |
| Antagonist | < 100 nM and 90.6 nM | 0.12 | Antagonist | < 100 nM and < 11 nM and 10.7 nM | 8.46 | COc1ccccc1N1CCN(CCCN2C(=O)N(Cc3ccc(Cl)cc3Cl)C(=O)C2(C)C)CC1.Cl [Compound 1, 3-(2,4-dichlorobenzyl)-1-(3-(4-(2-methoxyphenyl)piperazin-1-yl)propyl)-5,5-dimethylimidazolidine-2,4-dione hydrochloride] | 101.0 | 133.3 | 88.3 | 120.3 | 82.3 | 113.0 | 82.2 | 112.2 | 81.3 | 114.2 | 80.8 | 114.7 | 81.7 | 116.0 | Diastolic blood pressure ([3]; 60 min): 83.3; Systolic blood pressure ([3]; 60 min): 117.5; effect on systolic and diastolic blood pressure (in words) [3]: statistically significant reduction; Ki [4]: 31 nM; melting point: 201 to 203 °C |
| Antagonist | 1730 nM | 0.66 | Antagonist | 1150 nM | 1.51 | CC1(C)C(=O)N(Cc2ccc(Cl)cc2Cl)C(=O)N1CCCN1CCN(c2cccc(Cl)c2Cl)CC1.Cl [Compound 2, 3-(2,4-dichlorobenzyl)-1-(3-(4-(2,3-dichlorophenyl)piperazin-1-yl)propyl)-5,5-dimethylimidazolidine-2,4-dione hydrochloride] | 100.7 | 129.3 | 98.5 | 126.7 | 96.8 | 124.2 | 92.8 | 121.7 | 90.3 | 121.2 | 89.3 | 120.2 | 88.0 | 120.3 | Diastolic blood pressure ([3]; 60 min): 88.0; Systolic blood pressure ([3]; 60 min): 119.3; Ki [4]: 535 nM; melting point: 185 to 187 °C |
| Antagonist | 290 nM | 0.01 | Antagonist | < 11 nM and 3.27 nM | 88.73 | CC1(C)C(=O)N(Cc2ccc(Cl)cc2Cl)C(=O)N1CCCCCN1CCN(c2ccccc2)CC1.Cl [Compound 3, 3-(2,4-dichlorobenzyl)-5,5-dimethyl-1-(5-(4-phenylpiperazin-1-yl)pentyl)imidazolidine-2,4-dione hydrochloride] | 93.7 | 132.2 | 90.3 | 123.3 | 81.2 | 113.7 | 81.7 | 113.0 | 83.2 | 116.3 | 82.7 | 116.3 | 84.2 | 120.3 | selectivity for α1B-AR over α1A-AR ([2]; from IC50 ratio): ~ 90 fold; Diastolic blood pressure ([3]; 60 min): 83.8; Systolic blood pressure ([3]; 60 min): 119.7; effect on systolic and diastolic blood pressure (in words) [3]: statistically significant reduction; Ki [4]: 43 nM; melting point: 218 to 220 °C |
